Here are results for 1 compound from article PMC6158189, “A pharmacological probe identifies cystathionine β-synthase as a new negative regulator for ferroptosis” (Cell Death & Disease, 2018).

The test system of one experiment is HepG2 cells. As to the kind of experiment: total Hcys in HepG2 cells (ELISA). The experiment is classed as cell-based, human. As to conditions: 5 or 10 μM, 12 h. The protocol:
Fig. 3 The effect of CH004 on the activity of endogenous hCBS in cells. a CH004 dose-dependently elevates the levels of Hcys in HepG2 and HEK293T cells. HepG2 cells or HEK293T cells were incubated with indicated CH004 or DMSO (control) for 12 h. The amount of total Hcys in cells was measured by ELISA using Axis® Homocysteine EIA kit (IBL, AX51301) (“Materials and Methods” section). […] HepG2 cells were treated with indicated DMSO, CH004 or HA for 8 h before the staining with AzMC probe. The amount of the H2S (blue) was quantified and is shown in (c). Bars, 50 μm. Control (CTR), DMSO group (100%). A representative fluorescence image from three independent experiments is shown. Means ± SDS (n = 3). d CH004 elevates Hcys in the peripheral blood of rats. The total Hcys of the blood samples collected from the anesthetized rats at the 75 min time point (Materials and Methods) were quantified by ELISA (see above). Means ± SDS (n = 6).
HepG2 or HEK293T cells were seeded in poly-D-Lys-coated 6-well plates at a density of ∼ 5 × 10^5 cells per well for one day, treated with DMSO or various concentrations of compounds for another 12 h before the collection by scraping or trypsinization. […]
Background: An ELISA detects its analyte on a solid surface through an enzyme-linked reagent.

The test system of experiment [1] is rat hemorrhagic shock model. As to the kind of experiment: hemorrhagic shock rat model. The experiment is classed as in vivo. The settings on record: 3 mg/kg intraperitoneal. The protocol: Fig. 3 The effect of CH004 on the activity of endogenous hCBS in cells. a CH004 dose-dependently elevates the levels of Hcys in HepG2 and HEK293T cells. HepG2 cells or HEK293T cells were incubated with indicated CH004 or DMSO (control) for 12 h. The amount of total Hcys in cells was measured by ELISA using Axis® Homocysteine EIA kit (IBL, AX51301) (“Materials and Methods” section). […] HepG2 cells were treated with indicated DMSO, CH004 or HA for 8 h before the staining with AzMC probe. The amount of the H2S (blue) was quantified and is shown in (c). Bars, 50 μm. Control (CTR), DMSO group (100%). A representative fluorescence image from three independent experiments is shown. […] The total Hcys of the blood samples collected from the anesthetized rats at the 75 min time point (Materials and Methods) were quantified by ELISA (see above). […]
Figure S10. […] The hemorrhagic shock model was constructed by blood withdrawing (BW) from the carotid artery of anesthetized male Sprague-Dawley rats (280-320 g), and the mean arterial blood pressure (MAP) was monitored by an MP30B-CE pressure transducer (BIOPAC, Santa Barbara, CA, USA). […] Then, 15 min later, CH004 (3 mg/kg), PAG (50 mg/kg) or vehicle (2% DMSO in saline) was intraperitoneally administered to the rats, and the MAP was monitored continuously for another 45 min. MAP was continually recorded during the experiments. […]

The test system of another experiment is HEK293T cells. Description: cell viability (CellTiter 96 Aqueous One). The experiment is classed as cell-based. The settings on record: 24 h. The method, then:
Fig. 4 CH004 arrests the cell cycle at the S phase. a CH004 reduces the cell viability of HEK293T and HepG2 cells. HEK293T or HepG2 cells were treated with indicated concentrations of CH004 for 24 h before the cell number was analyzed using the CellTiter96® Aqueous One Solution Cell Proliferation Assay (Promega, Materials and Methods). The means at each concentration of one representative experiment are shown as percentages of DMSO (control, 100%). Means ± SDs (n = 3). b Overexpression of hCBS or knock-down of hCBS counteracts the growth inhibition exerted by CH004 in HEK293T cells. Indicated HEK293T stable cell lines were treated with the CH004 or DMSO for 24 h. Then, the cell viability was quantified with the CellTiter 96® Aqueous One Solution Cell Proliferation Assay under the standard protocol (Promega). […] The efficacy for CBS overexpression and knock-down in HEK293T cells was determined by Western blotting using an anti-CBS antibody (3E1, 1:2000; Abnova). c CH004 induces cell death in HEK293T and HepG2 cells. […] HEK293T cells were incubated with indicated compounds for 12 h, and the DNA content was quantified with propidium iodide to analyze the cell cycle distribution by flow cytometry (e). The cell cycle distributions for HEK293T-shNT and HEK293T-shCBS cells were accordingly analyzed and are shown in f. […]

A further experiment deals with H22 cells. As to the kind of experiment: cell viability (CellTiter 96 Aqueous One). The experiment is classed as cell-based, mouse. The method, then:
To measure cell viability and cytotoxicity, HepG2, HEK293T, Huh-7, H22, Panc-28, HCT116 and MDA-MB-231 cells were seeded at a density of ~ 2 × 10^4 cells per well in 96-well plates (Coring, NY, USA) for one day, followed by incubation with DMSO or various concentrations of tested compound for indicated times. Then, the cells were collected to measure the cell viability using the CellTiter 96® Aqueous One Solution Cell Proliferation Assay (Promega, G3581) according to the standard protocols.
Figure S11. The effects of CH004 on cell viability in various types of cancer cell lines. (A) Dose-dependent curves of CH004 on cell viability of HepG2 cells (▲), HEK293T cells (○). Percentages of cell viability of CH004 obtained in Figure 4a were fitted to the non-linear equation using GraphPad Prism 5 to get the IC50 values of CH004 in respective cell lines. Means ± SDs (n=3). […] (B) MDA-MB-231 (breast cancer cell cline), HCT116 (colon cancer), Panc-28 cells (pancreas cancer), Huh7 cells (hepatocellular carcinoma) and H22 (mouse liver cancer) were incubated with DMSO (control) or indicated concentrations of CH004 for 24 h in a 96-well plate before assessing cell viability using the CellTiter96® Aqueous One Solution Cell Proliferation Assay (Promega). The data are shown as percentages of control (DMSO, 100%). Means ± SDs (n=3). (C) The dose-dependent curve of CH004 on cell viability. […]

With `Cn1nc(Cc2ccccc2)nc2c(=O)n(C)c(=O)nc1-2` [CH004, 3-benzyl-1,6-dimethylpyrimido[5,4-e][1,2,4]triazine-5,7(1H,6H)-dione], the “increase of Hcys” value with HepG2 cells is given as ~ 2 fold. The “increase of the level of Hcys in blood” value in experiment [1] (75 min time point) was ~ 2 fold. Besides, the “effect on mean arterial pressure (MAP)” value in experiment [1] (indicator for in vivo CSE inhibition) is “does not affect”. Moreover, the IC50 with HEK293T cells is roughly 17 µM; in the experiment on HEK293T cells (Homo sapiens, HEK-293T), 16.6 ± 5.3 µM; in the experiment with H22 cells (24 h) it was roughly 13 µM; in the experiment with H22 cells (Mus musculus, H22, 24 h), 12.9 ± 0.7 µM.

Usually IC50 stands for the concentration that gives 50% inhibition.
